Reference: PubChem BioAssay AID651570 (Sanford-Burnham Center for Chemical Genomics, 2012)
Calls of active or inactive are those of the source.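 The calls were made as follows: active = compounds that block the Wnt3a luciferase reporter with IC50 at or below 20 µM, flagged as nonspecific; inactive = the rest.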

Test system: Wnt-LIGHT cells, Wnt3a-conditioned, luciferase reporter luminescence
Assay: antagonism of Wnt3a pathway luciferase reporter – Wnt-LIGHT cells, luminescence, selectivity assay for Gli-SUFU antagonist project, dose response (AID 651570)

Row | IC50 | Compound
1 | > 50 µM (inactive) | O=C(C[C@H]1C/C=C\C[C@H](NC(=O)OCC2c3ccccc3-c3ccccc32)C(=O)OC[C@@H]2CCCN2C1=O)N[C@H](CO)Cc1ccccc1
2 | > 50 µM (inactive) | O=C(Nc1ccccc1)C1=C[C@H](C2CCCCC2)C[C@H](OCCCCO)O1
